# Tests used:
# [1] = test system: human fibrosarcoma cell strain HT-P11; assay: Action of MSE for promoting procollagenase production (FITC-collagen collagenase activity of culture supernatant); type: cell-based
# Experimental: A test was carried out using anchorage independent cell strain which is derived from a human fibrosarcoma cell strain HT 1080 (ATCC CCL121) and growable in a serum-free, protein-free medium (referred to as "human fibrosarcoma cell strain HT-P11".). Namely, the above-described human fibrosarcoma cell strain HT 1080 (ATCC CCL1211) was cultured in the presence of serum in a flask having a base area of 25 cm^2 and the medium was replaced by the HF-AV medium. Replacing a fifth to half part of the cultured suspension with a fresh HF-AV medium every 3-4 days, the culture was continued in a serum-free, protein-free medium. The thus grown cells were used. The cells were pre-cultured as below to prepare a cell suspension which was then tested.
# The human fibrosarcoma cell strain HT-P11 was suspended with a density of 1×10^5 cells/ml in the HF-AV medium. Flasks (each having a base area of 75 cm^2) were charged, respectively, with 20 ml of the resulting suspension, and stationarily cultured at 37° C. for 3 days in a 95% air/5% carbon dioxide gas atmosphere. […]
# Using a type-I collagen labeled with fluorescein isothiocyanate (hereinafter abbreviated as "FITC") (a 1 mg/ml conc. FITC/collagen acetic acid solution, manufactured by Cosmo Bio Co.) as a substrate solution, the activity (unit/ml) of the above collagenase solution was determined in accordance with the following procedure.
# [2] = test system: male rabbits of Japanese native strain; assay: Skin irritative test (Draize method); type: in vivo
# Experimental: Using male rabbits of Japanese native strain (a weight of about 3 kg), a skin irritative test was conducted in accordance with the Draize method [Appraisal of the Safety of Chemicals in Foods, Drugs and Cosmetics, p.46 (1959) edited and published by the Editorial Committee, Association of Food & Drug Official of U.S.A.].
# An abraded region (injured skin) was produced on the hair-trimmed back of the rabbits. An adhesive plaster for a patch test (RIBBON-AID™ of 1.2 cm×1.6 cm, manufactured by Liba-Tape & Co., Ltd.) was impregnated with 0.1 ml of a 1 wt. % MSE aqueous solution that had been prepared by dissolving MSE in refined water and attached onto the injured skin and a normal skin, respectively. After 24 hours, the plaster was detached to observe erythematic and edematous conditions of the skins. After 48 hours from detaching of the plaster, the same observation was made.
# Based on the above scores and the following equation, primary irritant scores were calculated.
# Primary irritant score=(A24 +A48)/2+(B24
# Then, irritation degrees of the test compounds were appraised based upon the primary irritative scores and the criteria shown in Table 6.
# [3] = test system: Rats of hepatic fibrosis induced by CCl4; assay: Histological examination of liver; type: in vivo, male rats of Wistar origin; conditions: as compared with the untreated group; hematoxylin-eosin
# Experimental: (§1) A 2 ml/kg dose of an equivalent mixture of carbon tetra-chloride (CCl4) and olive oil was administered hypodermically to the back of male rats of Wistar origin (5 weeks old; a weight of 122-134 g; and 5 rats/group) twice a week (on Monday and Thursday) for 10 weeks to produce rats of hepatic fibrosis. A 3 ml/kg dose of a 66.6 mg/ml conc. MSE aqueous solution was administered perorally once a day for continual 7 weeks (except Sundays) from the 4th week after the commencement of the CCl4 administration.
# (§2) Further, after gathering the whole-blood, the liver was extracted, weighed and divided into halves under an ice-chilled condition. Then, one of the halves was frozen at -80° C. for quantification of hydroxyproline (hereinafter abbreviated as "Hyp") in the liver and the other half was fixed with a 10% formaline solution for a histological examination.
# (§3) On the other hand, there were provided, as an untreated group, a group of the rats of hepatic fibrosis administered with 3 ml/kg of refined water in lieu of the MSE aqueous solution according to the same schedule as the above and, as a group of normal rats, a group bred for 10 weeks without administering CCl4 and the MSE aqueous solution. Blood-gathering and liver-extraction were conducted on these groups in the same manner as the above.
# (§4) Then, using the above each liver and blood plasma, the Hyp in the liver and blood were quantified. Additionally, the Hyp is an index of the quantity of the collagen [Methods of Biochemical Analysis, Vol. 15, p. 25 (1967)]. Further, biochemical examinations of the blood plasma [refer to the under-described items (b)-(h)] and histological examinations of the liver [refer to the under-described item (i)], as indices of liver injury, were conducted.
# (i) Histological examination of liver: a liver was sliced according to a usual method and, after staining with hematoxylin-eosin, it was microscopically observed.
# [4] = test system: Rats of hepatic fibrosis induced by CCl4; assay: Effect of MSE in medical treatment for hepatic fibrosis (Hyp in liver and blood, blood plasma biochemistry); type: in vivo, male rats of Wistar origin; conditions: mean ± standard error (n = 5)
# Experimental: as §1
# Then, the whole blood was gathered from the abdominal aorta and collected in a test tube treated with heparin. This was centrifuged to obtain blood plasma. The blood plasma was stored at -80° C. until the under-mentioned biochemical examinations.
# as §2, §3, §4
# (a) Quantities of the Hyp in liver and blood.
# (a-1) Quantity of the Hyp in a liver: about 100 mg of a liver were weighed precisely and added with 250 μl of physiological salt solution. Then, the liver was disintegrated by agitating vigorously (at 28,000 rpm for 30 seconds) with a homogenizer (PHYSCOTRON™, manufactured by Niti-On Medical and Physical Instruments Mfg. Co.).
# The obtained suspension was centrifuged (at 5,000 rpm for 10 min.) and separated into a supernatant sample and a precipitation sample. By adding a 6N hydrochloric acid, each sample was increased to 2 ml and hydrolyzed at 110° C. for 24 hours. The hydrolyzate solution was centrifugally condensed to remove hydrochloric acid therefrom and the condensate was dissolved in a 0.01N hydrochloric acid.
# The obtained solution was quantified according to a determination method of amino acids by a high-performance liquid chromatography with a post-column derivatization [Proceedings of the National Academy of Sciences of the U.S.A., Vol. 72, No. 2, p. 619 (1975)] to find quantities of the Hyp in the supernatant sample and precipitation sample, respectively. Then, a quantity of the Hyp per unit weight of the liver (μmol/g of liver) was calculated from the total quantity of the Hyps in the supernatant sample and precipitation sample and the weight of the liver.
# (a-2) Quantity of the Hyp in blood: 100 μl of blood plasma was admixed with 100 μl of a 5 w/v % sulfo-salicylic acid aqueous solution under an ice-chilled condition and centrifugally separated (10,000 rpm; for 3 min.) to obtain a supernatant liquor. The Hyp in the supernatant liquor was quantified according to the above-mentioned determination method of amino acids (μmol/1).
# (b) Quantity of glutamic-pyruvic transaminase (hereinafter abbreviated as "GPT"):
# (b-3) Measurement of test sample.
# (c) Quantity of glutamic-oxaloacetic transaminase (hereinafter abbreviated as "GOT"): […]
# [5] = test system: male mice of ICR strain; assay: Acute toxicity; type: in vivo; conditions: single peroral dose 5 g/kg of body weight, 5 male mice, observed 7 days
# Experimental: An acute toxicity was examined as follows:
# To 5 male mice of ICR strain (5 weeks old; a weight of 24~28 g), a 25 g/ml conc. MSE aqueous solution that had been prepared by dissolving MSE in refined water was perorally administered once in a dose of […] of the body weight (5 g/kg of the body weight, as MSE).
smiles,measurement,setting,value
"CN[C@@H](CO)C(=O)O [MSE, N-methyl-L-serine]",Production of procollagenase,"[1]; mean ± standard error (N = 3), control 3.7 ± 0.2, 600 μM MSE solution, 0.4 ml added to 2 ml culture, 13 days, P < 0.01",7.9 ± 0.7 unit/ml of culture solution
same,Production promotion rate,[1]; versus no additives (control),114%
same,primary irritative score,"[2]; 0.1 ml of 1 wt. % MSE aqueous solution, injured and normal skin, after 24 and 48 hours",zero
same,appraisal of irritation,"[2]; based on primary irritative score, 1 wt. % MSE aqueous solution",light irritation
same,cholangioepithelial cytogenesis,[3],mitigated
same,cholangiolar hyperplasia,[3],mitigated
same,diffuse hepatocyte vacuolization,[3],mitigated
same,f: Quantity of alkaline phosphatase,"[4]; Bessey-Lowry's method, untreated 1270 ± 90, p < 0.01",956 ± 114 unit/l
same,e: Quantity of gross bilirubin,"[4]; Malloy-Evelyn's method, untreated 0.36 ± 0.02, p < 0.1",0.26 ± 0.05 m9/dl
same,g: Thymol turbidimetric test value (TTT),"[4]; blood plasma, untreated 0.26 ± 0.06",0.18 ± 0.13 U of Kunkel
same,h: Zinc sulphate turbidimetric test value (ZTT),"[4]; blood plasma, untreated 0.78 ± 0.11, p < 0.01",0.26 ± 0.07 U of Kunkel
same,d: Quantity of γ-glutamyl transpeptidase (γ-GTP),"[4]; blood plasma, untreated 17.6 ± 0.7, p < 0.1",14.4 ± 1.7 U/liter
same,a-2: Quantity of the Hyp in blood,"[4]; blood plasma, untreated 30.6 ± 1.1, p < 0.1",39.1 ± 3.6 μmol/1
same,b: Quantity of glutamic-pyruvic transaminase (GPT),"[4]; blood plasma, untreated 948 ± 92, p < 0.01",537 ± 182 Reitman-Frankel unit
same,c: Quantity of glutamic-oxaloacetic transaminase (GOT),"[4]; blood plasma, untreated 2170 ± 184, p < 0.01",875 ± 324 Reitman-Frankel unit
same,a-1: Quantity of the Hyp in liver,"[4]; peroral 3 ml/kg of 66.6 mg/ml once a day, 7 weeks, untreated 10.0 ± 1.5, p < 0.1",6.79 ± 0.82 μmol/g of liver
same,deaths by administration,[5],no deaths
